# Results from ChEMBL document CHEMBL1129375, “Design and synthesis of a series of non-peptide high-affinity human corticotropin-releasing factor1 receptor antagonists” (J Med Chem, 1996).
# pIC50, pKi: −log10 of the molar value.
# What was measured:
# [1] = biological target: T1, Corticotropin-releasing factor receptor 1 (Homo sapiens, UniProt P34998); assay: Inhibition of [125I]CRF binding to human Corticotropin releasing factor receptor 1 tested at 6-12 doses
# T1 sequence (P34998 whole entry): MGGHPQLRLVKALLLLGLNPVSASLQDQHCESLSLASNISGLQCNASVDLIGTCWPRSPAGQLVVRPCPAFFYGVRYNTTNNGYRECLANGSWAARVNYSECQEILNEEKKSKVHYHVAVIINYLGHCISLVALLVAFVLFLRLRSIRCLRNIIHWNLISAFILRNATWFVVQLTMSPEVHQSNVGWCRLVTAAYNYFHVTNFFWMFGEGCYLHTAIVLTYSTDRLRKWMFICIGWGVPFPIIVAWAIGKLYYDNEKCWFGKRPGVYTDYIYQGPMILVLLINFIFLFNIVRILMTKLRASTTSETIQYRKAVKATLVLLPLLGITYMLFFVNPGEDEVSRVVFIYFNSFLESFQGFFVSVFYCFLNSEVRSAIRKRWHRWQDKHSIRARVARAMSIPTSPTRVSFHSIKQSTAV
# [2] = organism: Homo sapiens; assay: Compound was evaluated for the inhibition of CRF-stimulated cyclic adenosine monophosphate production; assay type: functional, organism-based
SMILES,pKi [1],pIC50 [2]
CCCN(CC1CC1)c1cc(C)nc(Nc2c(Cl)cc(Cl)cc2Cl)n1,7.15,–
CCCN(CC1CC1)c1nc(C)nc(Nc2c(Cl)cc(Cl)cc2Cl)c1C,8.64,–
CCCN(CCC)c1nc(C)nc(Nc2c(Cl)cc(Cl)cc2Cl)c1C,8.60,6.60
CCCN(CC1CC1)c1cc(Nc2c(Cl)cc(Cl)cc2Cl)nc(C)n1,7.52,5.43
CCCN(CC1CC1)c1nc(C)nc(Nc2c(Cl)cc(Cl)cc2Cl)c1CC,8.42,–

# Further lines, results first:
pKi [1],pIC50 [2],SMILES
< 5.00,–,CCCN(CC1CC1)c1cc(Nc2c(Cl)cc(Cl)cc2Cl)ncn1
< 5.00,–,CCCN(CC1CC1)c1nc(C)cc(Nc2c(Cl)cc(Cl)cc2Cl)n1
8.70,–,CCCN(CC1CC1)c1nc(C)nc(Nc2c(Cl)cc(Cl)cc2Cl)c1Br
6.82,–,CCCN(CC1CC1)c1nc(C)nc(N(C)c2c(Cl)cc(Cl)cc2Cl)c1C
8.77,7.00,CCCN(CC1CC1)c1nc(C)nc(Nc2c(Cl)cc(Cl)cc2Cl)c1Cl
